The test system of data set [1] is C57BL/6N mice. The data set can be described thus: Naltrexone-precipitated withdrawal syndrome. Format: in vivo. The settings on record: twice daily sc. for 7 days, KGFF09 7.4 μmol/kg; in comparison to the other compounds. As to the method:
On day 7, two hours after the last drug injection, the withdrawal syndrome was precipitated by administration of naltrexone (5 mg/kg, sc.) and evaluated over 30 min. Jumping, paw tremors and wet dog shakes were recorded as number of events occurring during the total test time. Diarrhea was checked for 30 min with one point given for any signs of it during each 5 min period (maximum score: 6). Body weight was measured immediately before and after each 30 min test session, and percentage of body weight lost during the test was calculated. For each mouse, a global opiate withdrawal score was also calculated by summing the values obtained for each sign. For this purpose one point was assigned to every 3 jumps and 5 paw tremors, respectively, whereas all other signs were given the absolute values recorded during the test.

Data set [2] deals with human NPFF1R (Homo sapiens, UniProt Q9GZQ6). As to the kind of experiment: Radioligand competition binding with [125I]-1-DMe-NPFF. On the set-up: expressed in transfected cells; HEK293-Glo20F cells (cAMP).
human NPFF1R, sequence (Q9GZQ6 whole entry): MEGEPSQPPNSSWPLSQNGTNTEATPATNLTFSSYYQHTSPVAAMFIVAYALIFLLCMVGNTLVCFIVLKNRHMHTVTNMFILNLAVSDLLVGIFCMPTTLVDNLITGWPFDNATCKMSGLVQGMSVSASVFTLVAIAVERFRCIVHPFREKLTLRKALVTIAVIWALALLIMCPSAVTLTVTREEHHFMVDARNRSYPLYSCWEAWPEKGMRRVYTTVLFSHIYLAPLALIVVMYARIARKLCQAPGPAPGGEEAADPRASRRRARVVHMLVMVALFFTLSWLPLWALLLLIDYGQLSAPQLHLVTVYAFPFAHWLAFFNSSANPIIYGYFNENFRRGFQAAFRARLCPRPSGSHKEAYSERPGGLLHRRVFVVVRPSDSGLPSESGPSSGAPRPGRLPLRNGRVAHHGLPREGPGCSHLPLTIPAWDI

For the molecule `Cc1cc(O)cc(C)c1C[C@H](N)C(=O)N[C@H](CCCNC(=N)N)C(=O)N[C@H]1Cc2ccccc2CN(CCC(=O)N[C@@H](CCCN2CCC(Cc3ccccc3)CC2)C(=O)N[C@@H](Cc2ccccc2)C(N)=O)C1=O` [KGFF09, H-Dmt-D-Arg-Aba-β-Ala-Bpa-Phe-NH2], in data set [1], the “global opiate withdrawal score, reduced to” value is recorded as “circa 50%”.

What is called Ki is the equilibrium dissociation constant of an inhibitor or competing ligand from its target. Read a high Ki as weaker binding. With `Cc1cc(O)cc(C)c1C[C@H](N)C(=O)N[C@H](CCCNC(=N)N)C(=O)N[C@H]1Cc2ccccc2CN(CCC(N)=O)C1=O` [KGOP01, reference compound], the Ki in data set [2] is 4.6 µM.
